# Source: patent publication US10059721B2, “Substituted thieno[3,2-b]pyrazines for inhibiting cancer cell proliferation and inducing cancer cell apoptosis” (DONGGUK UNIVERSITY INDUSTRY-ACADEMIC COOPERATION FOUNDATION, priority 2014, dated 2018)
# Experiments:
# Type in all cases: cell-based
# HT29 = assay: Cell growth inhibition experiment (SRB), HT29; conditions: Homo sapiens, HT-29, incubated for 96 hours, read-out: IC50 (μM) of cancer cell lines HT29
# Method: (§1) The 4-(aryl)-N-(2-alkoxythieno[3,2-b]pyrazin-3-yl)-piperazin-1-carboxamide derivative compounds synthesized according to Examples 1 to 27 of the present invention were treated with various human tissue-derived cancer cell lines cultured according to Experimental Example 1, and thus the inhibitory effect of the growth of human cancer cells was confirmed. The cell growth inhibition experiment was conducted using sulforhodamine B (SRB) technique (Skehan et al., J. National Cancer Institute, 1990, 82: 1107-1112). Specifically, each cell line was seeded in a 96-well plate at a density of 2 to 3×10^3 cells/well, cultured overnight, and then treated with the 4-(aryl)-N-(2-alkoxythieno[3,2-b]pyrazin-3-yl)-piperazin-1-carboxamide derivative compounds of the present invention. The experiment was repeated 3 times for each compound. Cells treated with each compound were additionally incubated for 96 hours, fixed with 10% trichloroacetic acid (TCA), and then left at 4° C. for 1 hour. The resultant was washed 3 times with distilled water. Thereafter, each cell was treated with 0.4% sulforhodamine B dissolved in 1% acetic acid, stained for 30 minutes, and then washed 4 times with 1% acetic acid. The resultant was dried in the air. After shaking the resultant in Tris solution (10 mM) for 5 minutes, the absorbance was measured at 530 nm using a Benchmark Plus Microplate reader (Bio-Rad Laboratories, Hercules, Calif.).
# (§2) In order to convert the OD530 value to the number of viable cells per each well, the measured OD530 value was compared to the standard OD530-vs.-cell number curve of each cell line. The percent survival was calculated using the following formula: % survival=Nlive cells(test)/Nlive cells(control)×100
# (§3) IC50 values were calculated by nonlinear regression analysis.
# HUVEC = assay: Cell growth inhibition experiment (SRB), HUVEC; conditions: Homo sapiens, incubated for 96 hours, read-out: IC50 (μM) of cancer cell lines HUVEC
# Method: as §1, §2, §3
# [1] = system: HN31 (head and neck cancer) cell line; assay: Cell growth inhibition experiment (SRB), HN31; conditions: Homo sapiens, incubated for 96 hours, read-out: IC50 (μM) of cancer cell lines HN31
# Method: (§4) The cell lines below were used in order to confirm the efficacy of the compounds synthesized in Examples 1 to 27. Human PANC-1 (pancreatic cancer) and MDA-MB-231 (breast cancer) cell lines were obtained from American Type Culture Collection (ATCC; Manassas, Va.); and HN31 (head and neck cancer) and UMRC2 (kidney cancer) cell lines were secured from the United States National Institutes of Health (Bethesda, Md.). The MDA-MB-231, UMRC2, HN31, and PANC-1 cell lines were cultured in Dulbecco modified Eagle medium (DMEM) containing FBS (10%), HEPES (10 mM), penicillin (100 U/mL), and streptomycin (100 μg/mL). All cell lines were cultured in an incubator (37° C., 5% CO2).
# as §1, §2, §3
# A549 = assay: Cell growth inhibition experiment (SRB), A549; conditions: Homo sapiens, incubated for 96 hours, read-out: IC50 (μM) of cancer cell lines A549
# Method: as §1, §2, §3
# [2] = system: MDA-MB-231 (breast cancer) cell line; assay: Cell growth inhibition experiment (SRB), MDA-MB-231; conditions: Homo sapiens, incubated for 96 hours, read-out: IC50 (μM) of cancer cell lines MDA-MB-231
# Method: as §4, §1, §2, §3
# SK-OV-3 = assay: Cell growth inhibition experiment (SRB), SK-OV-3; conditions: Homo sapiens, incubated for 96 hours, read-out: IC50 (μM) of cancer cell lines SK-OV-3
# Method: as §1, §2, §3
# HEK293 = assay: Cell growth inhibition experiment (SRB), HEK293; conditions: Homo sapiens, incubated for 96 hours, read-out: IC50 (μM) of cancer cell lines HEK293
# Method: as §1, §2, §3
# [3] = system: PANC-1 (pancreatic cancer) cell line; assay: Cell growth inhibition experiment (SRB), PANC-1; conditions: Homo sapiens, incubated for 96 hours, read-out: IC50 (μM) of cancer cell lines PANC-1
# Method: as §4, §1, §2, §3
# [4] = system: UMRC2 (kidney cancer) cell line; assay: Cell growth inhibition experiment (SRB), UMRC2; conditions: Homo sapiens, incubated for 96 hours, read-out: IC50 (μM) of cancer cell lines UMRC2
# Method: as §4, §1, §2, §3
Structure (SMILES),IC50 (HT29),IC50 (HUVEC),IC50 [1],IC50 (A549),IC50 [2],IC50 (SK-OV-3),IC50 (HEK293),IC50 [3],IC50 [4]
"COc1nc2ccsc2nc1NC(=O)N1CCN(c2cc(C)cc(C)c2)CC1 [Example 11, 4-(3,5-dimethylphenyl)-N-(2-methoxythieno[3,2-b]pyrazin-3-yl)piperazin-1-carboxamide]",0.31 µM,0.07 µM,0.41 µM,1.31 µM,0.07 µM,0.27 µM,0.65 µM,0.24 µM,0.07 µM
"CCOc1nc2ccsc2nc1NC(=O)N1CCN(c2cc(C)cc(C)c2)CC1 [Example 14, 4-(3,5-dimethylphenyl)-N-(2-ethoxythieno[3,2-b]pyrazin-3-yl)piperazin-1-carboxamide]",< 2.5 µM,< 2.5 µM,0.65 µM,< 2.5 µM,0.34 µM,< 2.5 µM,< 2.5 µM,< 2.5 µM,0.57 µM
"CCOc1nc2ccsc2nc1NC(=O)N1CCN(c2cc(OC)cc(OC)c2)CC1 [Example 13, 4-(3,5-dimethoxyphenyl)-N-(2-ethoxythieno[3,2-b]pyrazin-3-yl)piperazin-1-carboxamide]",< 2.5 µM,< 2.5 µM,0.72 µM,< 2.5 µM,0.16 µM,< 2.5 µM,< 2.5 µM,0.65 µM,0.26 µM
"COc1nc2cc(Cl)sc2nc1NC(=O)N1CCN(c2cc(F)cc(F)c2)CC1 [Example 3, N-(6-chloro-2-methoxythieno[3,2-b]pyrazin-3-yl)-4-(3,5-difluorophenyl)piperazin-1-carboxamide]",0.53 µM,0.54 µM,0.71 µM,2.11 µM,0.04 µM,0.85 µM,0.87 µM,0.56 µM,0.06 µM
"COc1cc(OC)cc(N2CCN(C(=O)Nc3nc4sc(Cl)cc4nc3OC(C)C)CC2)c1 [Example 7, N-(6-chloro-2-isopropoxythieno[3,2-b]pyrazin-3-yl)-4-(3,5-dimethoxyphenyl)piperazin-1-carboxamide]",< 2.5 µM,< 2.5 µM,< 2.5 µM,< 2.5 µM,< 2.5 µM,< 2.5 µM,< 2.5 µM,< 2.5 µM,< 2.5 µM
"CCOc1nc2cc(Cl)sc2nc1NC(=O)N1CCN(c2cc(C)cc(C)c2)CC1 [Example 5, N-(6-chloro-2-ethoxythieno[3,2-b]pyrazin-3-yl)-4-(3,5-dimethylphenyl)piperazin-1-carboxamide]",< 2.5 µM,< 2.5 µM,2.35 µM,< 2.5 µM,1.22 µM,< 2.5 µM,< 2.5 µM,2.32 µM,1.72 µM
"COc1nc2ccsc2nc1NC(=O)N1CCN(c2cc(C)cc(F)c2)CC1 [Example 23, 4-(3-fluoro-5-methylphenyl)-N-(2-methoxythieno[3,2-b]pyrazin-3-yl)piperazin-1-carboxamide]",0.28 µM,0.45 µM,0.28 µM,0.63 µM,0.36 µM,0.36 µM,0.35 µM,0.58 µM,< 2.5 µM
"COc1nc2ccsc2nc1NC(=O)N1CCN(c2cccc(OC(F)(F)F)c2)CC1 [Example 24, N-(2-methoxythieno[3,2-b]pyrazin-3-yl)-4-(3-(trifluoromethoxy)phenyl)piperazin-1-carboxamide]",0.36 µM,< 2.5 µM,< 2.5 µM,0.87 µM,0.12 µM,0.12 µM,0.25 µM,0.44 µM,0.36 µM
"COc1nc2ccsc2nc1NC(=O)N1CCN(c2cc(F)cc(OC(F)(F)F)c2)CC1 [Example 26, 4-(3-fluoro-5-(trifluoromethoxy)phenyl)-N-(2-methoxythieno[3,2-b]pyrazin-3-yl)piperazin-1-carboxamide]",< 2.5 µM,< 2.5 µM,< 2.5 µM,< 2.5 µM,< 2.5 µM,< 2.5 µM,< 2.5 µM,< 2.5 µM,< 2.5 µM
